Values joined by “and” are separate entries in the source; they are usually repeats but may differ in a detail not shown here. Equal entries are not always repeated. Where two headings read alike, the source gives them in different places.
Tests used:
SC Lung = experiment: NCI assay, average per cancer type; conditions: for GI50: read-out: Average LOG10 GI50
solid tumors = experiment: NCI assay, mean potency in solid tumors; conditions: for GI50: read-out: Average LOG10 GI50, Mean Potency in solid tumors
Melanoma = experiment: NCI assay, average per cancer type; conditions: for CC50 / GI50: Homo sapiens; for CC50: 48 h, read-out: Average LOG10 LC50; for GI50: read-out: Average LOG10 GI50
Leukemia = experiment: NCI assay, average per cancer type; conditions: for CC50: 48 h, read-out: Average LOG10 LC50; for GI50: read-out: Average LOG10 GI50
LOX = experiment: Microculture tetrazolium assay; format: cell-based; conditions: read-out: IC50
Ovarian = experiment: NCI assay, average per cancer type; conditions: Homo sapiens; for GI50: read-out: Average LOG10 GI50
NSC Lung = experiment: NCI assay, average per cancer type; conditions: for CC50 / GI50: Homo sapiens; for CC50: 48 h, read-out: Average LOG10 LC50; for GI50: read-out: Average LOG10 GI50
T47D = experiment: Microculture tetrazolium assay; format: cell-based
SKVLB = experiment: Microculture tetrazolium assay; format: cell-based; conditions: for VLB/OV3: IC50 ratio SKVLB/SKOV3; for IC50: SKVLB
Renal = experiment: NCI assay, average per cancer type; conditions: for CC50 / GI50: Homo sapiens; for CC50: 48 h, read-out: Average LOG10 LC50; for GI50: read-out: Average LOG10 GI50
CNS = experiment: NCI assay, average per cancer type; conditions: Homo sapiens; for GI50: read-out: Average LOG10 GI50
Colon = experiment: NCI assay, average per cancer type; conditions: for CC50 / GI50: Homo sapiens; for CC50: 48 h, read-out: Average LOG10 LC50; for GI50: read-out: Average LOG10 GI50
tumor cell lines = experiment: NCI sulforhodamine B assay, all cell lines; conditions: Homo sapiens
MCF7 = experiment: Soft agar colony formation disk diffusion assay; format: cell-based, human; conditions: 100 μg/DISK
Description: (§1) A more elaborate version of this fundamental assay, the soft agar colony formation disk diffusion assay was used. This assay defines the relative activity of one particular drug versus a tumoral cell line type. The effect of the test drug against tumoral cells could be measured by its inhibitory capacity against colony formation after the delivery of the compound, in different concentrations on an filter disk(4). A modified technique of this assay was used in order to investigate the antiproliferative activity of candidate compounds. Tumoral cells from solid tumors and ascitic lines were plated separately in a two layer agar matrix. Cell lines to be tested were suspended in an upper layer of 0.4% Noble agar (Difco#00142-01) in RPMI-1066 (Gibco#3201875) at a yield varying between 10^4 to 2×10^5 cells per 60 mm Petri dish. Plating efficiency was determined for each line in order to achieve an optimal number of colonies per dish. Plates were examined before drug administration to confirm a uniform dispersion of single cells. The bottom layer consisted of 0.8% Noble agar, 0.8% Tryptic Soy Broth (difco#0037001)in CMRL-1066/Fischer's. The bottom layers were used within 2 and 9 days of preparation. Plated dishes (bottom layer of agar, upper layer of cells and administered drug were incubated in humidified atmosphere at 37° C., 5% CO2 for 10-20 days depending upon the time necessary to observe adequate colonies (defined as a cell aggregate of more than 50 cells) both control and drug inhibited. Drugs were administered on a paper filter disk (Whatman No. 1) of 6.5 mm diameter placed on the upper layer at 1/3 distance from the edge of the dish. The anti-clonogenic activity of the compounds was measured as the zone of inhibition from the disk edge to the most proximal colonies. This zone of inhibition was checked on an inverted microscope (40×) and was measured with a micrometer mounted in the eyepiece. The ocular micrometer was calibrated with a stage micrometer set for a particular combination of ocular and objective lenses. […] We made a modification of the initial technique by not plating a solid tumor and a leukemia simultaneously in the same Petri dish. Anti-clonogenic tests performed on leukemia cell line have helped in the discovery of the majority of current clinically used cytostatic drugs. Our tests on solid tumor lines (animal or human) may help define active compounds with solid tumor specificity. […] HUMAN TUMORS. […] LS180 (13) and BE1(14) were obtained from the Oncology Dept. of the Montreal General Hospital. […] Cell lines were routinely passaged twice a week by trypsinization and maintained in 25, or 75-sq. cm Falcon Plastic flasks at 37° C., 5% CO2 in humidified atmosphere. Both compounds were dissolved in DMSO (1 mg/100 ul) and brought to final volume (250 ul) with Millipore deionized sterile water. Further dilutions were made with […] volume of 25 ul of freshly prepared solution was placed on the filter disk and allowed to dry.

MCF7/ADR = experiment: Soft agar colony formation disk diffusion assay; format: cell-based, human; conditions: 100 μg/DISK
Description: as §1

MATB.WT = experiment: Soft agar colony formation disk diffusion assay; format: cell-based, rat; conditions: 100 μg/DISK
Description: (§2) A more elaborate version of this fundamental assay, the soft agar colony formation disk diffusion assay was used. This assay defines the relative activity of one particular drug versus a tumoral cell line type. The effect of the test drug against tumoral cells could be measured by its inhibitory capacity against colony formation after the delivery of the compound, in different concentrations on an filter disk(4). A modified technique of this assay was used in order to investigate the antiproliferative activity of candidate compounds. Tumoral cells from solid tumors and ascitic lines were plated separately in a two layer agar matrix. Cell lines to be tested were suspended in an upper layer of 0.4% Noble agar (Difco#00142-01) in RPMI-1066 (Gibco#3201875) at a yield varying between 10^4 to 2×10^5 cells per 60 mm Petri dish. Plating efficiency was determined for each line in order to achieve an optimal number of colonies per dish. Plates were examined before drug administration to confirm a uniform dispersion of single cells. The bottom layer consisted of 0.8% Noble agar, 0.8% Tryptic Soy Broth (difco#0037001)in CMRL-1066/Fischer's. The bottom layers were used within 2 and 9 days of preparation. Plated dishes (bottom layer of agar, upper layer of cells and administered drug were incubated in humidified atmosphere at 37° C., 5% CO2 for 10-20 days depending upon the time necessary to observe adequate colonies (defined as a cell aggregate of more than 50 cells) both control and drug inhibited. Drugs were administered on a paper filter disk (Whatman No. 1) of 6.5 mm diameter placed on the upper layer at 1/3 distance from the edge of the dish. The anti-clonogenic activity of the compounds was measured as the zone of inhibition from the disk edge to the most proximal colonies. This zone of inhibition was checked on an inverted microscope (40×) and was measured with a micrometer mounted in the eyepiece. The ocular micrometer was calibrated with a stage micrometer set for a particular combination of ocular and objective lenses. […] We made a modification of the initial technique by not plating a solid tumor and a leukemia simultaneously in the same Petri dish. Anti-clonogenic tests performed on leukemia cell line have helped in the discovery of the majority of current clinically used cytostatic drugs. Our tests on solid tumor lines (animal or human) may help define active compounds with solid tumor specificity. […] Murine tumors were maintained IN VIVO in order to diminish the selection of subpopulations of cells normally present in the heterogenous IN VIVO tumor. The actual drug sensitivity assay was done IN VITRO. For these experiments cells from freshly excised tumors or from ascitic fluids were maintained in RPMI-1066. Both compounds were dissolved in DMSO (1 mg/100 ul) and brought to final volume (250 ul) with Millipore deionized sterile water. Further dilutions were made with […] volume of 25 ul of freshly prepared solution was placed on the filter disk and allowed to dry.

MATB/ADR = experiment: Soft agar colony formation disk diffusion assay; format: cell-based, rat
Description: as §2

SKOV3 = experiment: Microculture tetrazolium assay; format: cell-based; conditions: Homo sapiens, SK-OV-3, SKOV3; read-out: IC50
[1] = 48 h, read-out: Average LOG10 LC50

| Compound | GI50 (SC Lung; Homo sapiens) [µM] | GI50 (solid tumors; Homo sapiens) [µM] | CC50 (Melanoma) [µM] | GI50 (Melanoma) [µM] | CC50 (Leukemia) [µM] | GI50 (Leukemia) [µM] | GI50 (Ovarian) [µM] | CC50 (NSC Lung) [µM] | GI50 (NSC Lung) [µM] | CC50 (Renal) [µM] | GI50 (Renal) [µM] | GI50 (CNS) [µM] | CC50 (Colon) [µM] | GI50 (Colon) [µM] | also measured |
| --- | --- | --- | --- | --- | --- | --- | --- | --- | --- | --- | --- | --- | --- | --- | --- |
| COc1cccc2c1C(=O)c1c(O)c3c(c(O)c1C2=O)C[C@@](O)(C(=O)CO)C[C@@H]3O[C@H]1C[C@H](N)[C@H](O)[C@H](C)O1 [ADR, reference compound] | 0.0537 | 0.117 | 2.75 | 0.12 | 17.4 | 0.0309 | 0.282 | 9.77 | 0.0468 | 13.5 | 0.182 | 0.0851 | 13.8 | 0.245 | Average LOG10 LC50 (SC Lung; SC Lung, 2880 min): -5.39 ± 0.18 log molar; Average LOG10 LC50, Mean Potency in solid tumors (solid tumors; solid tumors, 2880 min): -5.07 ± 0.28 log molar; Average LOG10 LC50 (Melanoma; Melanoma, 2880 min): -5.56 ± 0.29 log molar; Average LOG10 LC50 (Leukemia; Leukemia, 2880 min): -4.76 ± 0.10 log molar; IC50 (LOX): 0.0437 µM; Average LOG10 LC50 (NSC Lung; NSC Lung, 2880 min): -5.01 ± 0.26 log molar; IC50 (T47D; Homo sapiens): 0.0763 µM; IC50 (T47D; listed as Adriamycin): 0.072 µM; VLB/OV3 (SKVLB; listed as Adriamycin): 82.63 and 121.5; IC50 (SKVLB): 4.72 µM; Average LOG10 LC50 (Renal; Renal, 2880 min): -4.87 ± 0.38 log molar; Average LOG10 LC50 (Colon; Colon, 2880 min): -4.86 ± 0.27 log molar |
| COC(=O)[C@H]1CC2=C(C(=O)c3cc4ccccc4cc3C2=O)[C@H](O[C@H]2C[C@H](NC(=O)C(F)(F)F)[C@H](O)[C@H](C)O2)O1 [BCH-670] | 3.31 | 3.02 | 20.4 | 1.78 | > 100 | 1.66 | 3.8 | 24 | 3.09 | 29.5 | 4.37 | 3.63 | 25.1 | 2.04 | CC50 (SC Lung; Homo sapiens, 48 h, read-out: Average LOG10 LC50): 38.9 µM; CC50 (solid tumors; Homo sapiens, 48 h, read-out: Average LOG10 LC50, Mean Potency in solid tumors): 26.9 µM; CC50 (Ovarian; [1]): 39.8 µM; CC50 (tumor cell lines; 48 h, read-out: Log10 LC50, Mean / MG-MID, all cell lines (converted)): 29.5 µM; IC100 (tumor cell lines; 48 h, read-out: Log10 TGI, Mean / MG-MID, all cell lines): 8.32 µM; GI50 (tumor cell lines; read-out: Log10 GI50, Mean / MG-MID, all cell lines (converted)): 2.75 µM; CC50 (CNS; [1]): 26.3 µM |
| CCOC(=O)C1Cc2c(OCC)c3c(c(O)c2C(O[C@H]2C[C@H](NC(=O)C(F)(F)F)[C@H](O)[C@H](C)O2)O1)C(=O)c1ccccc1C3=O (stereo partly shown) [BCH-705] | – | – | – | – | – | – | – | – | – | – | – | – | – | – | zone of inhibition (MCF7): 79.3 ± 8.6 Zone Units; zone of inhibition (MCF7/ADR): 35.5 ± 7.3 Zone Units; VLB/OV3 (SKVLB): 1.09; IC50 (SKVLB; read-out: IC50): 14.1 µM; zone of inhibition (MATB.WT): 259.2 ± 21.5 Zone Units; cross resistance with adriamycin, MATB/ADR vs MATB.WT (MATB/ADR): no cross resistance with adriamycin; zone of inhibition (MATB/ADR; 100 μg/DISK): 155.5 ± 4.3 Zone Units; IC50 (SKOV3): 12.9 µM |

Reference: patent US5593970A, “Heterocyclic anthracycline analogs” (priority 1994, dated 1997)
